According to US8487108B2, “Piperidinyl carbamate intermediates for the synthesis of aspartic protease inhibitors” (Vitae Pharmaceuticals, Inc., priority 2005, dated 2013):

Each molecule was assayed against T1, trypsin-activated recombinant human renin (Homo sapiens, UniProt P00797) (assay: Renin fluorescence assay (internally quenched peptide substrate)). Details: compounds I*.
T1 sequence (P00797 67-406): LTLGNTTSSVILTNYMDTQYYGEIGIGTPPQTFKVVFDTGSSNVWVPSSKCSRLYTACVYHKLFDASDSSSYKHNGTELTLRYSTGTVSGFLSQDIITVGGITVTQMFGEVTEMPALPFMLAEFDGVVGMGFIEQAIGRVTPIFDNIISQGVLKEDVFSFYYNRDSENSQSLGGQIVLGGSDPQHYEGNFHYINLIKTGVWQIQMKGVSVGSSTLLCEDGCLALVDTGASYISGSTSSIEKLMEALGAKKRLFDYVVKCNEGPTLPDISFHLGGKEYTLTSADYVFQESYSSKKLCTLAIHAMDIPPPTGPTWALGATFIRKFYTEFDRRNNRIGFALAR
Format: biochemical
Summary of the method: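 Compounds (1 nM–10 μM final, DMSO) were mixed with internally quenched angiotensinogen-sequence substrate in pH 7.0 BES/NaCl/BSA buffer, then 0.2-2 nM trypsin-activated human renin added. Rate from the linear fluorescence increase (340 nm excitation, 495 nm emission) over 60-360 min at rt, compared with uninhibited control.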

| Structure (SMILES) | IC50 |
| --- | --- |
| CNC[C@H](CC1CCOCC1)NC(=O)N1CCO[C@@H]([C@@H](OCCNC(=O)OC)c2cccc(Cl)c2)C1 [I*-75a, methyl 2-((S)-(3-chlorophenyl)((R)-4-((S)-1-(methylamino)-3-(tetrahydro-2H-pyran-4-yl)propan-2-ylcarbamoyl)morpholin-2-yl)methoxy)ethylcarbamate] | > 50 nM |
| CNC[C@H](C[C@H]1CCC(=O)N(C)C1)NC(=O)N1CCC[C@@H]([C@@H](OCCNC(=O)OC)c2cccc(F)c2)C1 [I*-76a, methyl 2-((R)-(3-fluorophenyl)((R)-1-((S)-1-((R)-1-methyl-6-oxopiperidin-3-yl)-3-(methylamino)propan-2-ylcarbamoyl)piperidin-3-yl)methoxy)ethylcarbamate] | > 50 nM |
| CNC[C@H](C[C@H]1C[C@@H](C)O[C@@H](C)C1)NC(=O)N1CCC[C@@H]([C@@H](OCCNC(=O)OC)c2cccc(F)c2)C1 [I*-77a, methyl 2-((R)-((R)-1-((S)-1-((2S,4r,6R)-2,6-dimethyl-tetrahydro-2H-pyran-4-yl)-3-(methylamino)propan-2-ylcarbamoyl)piperidin-3-yl)(3-fluorophenyl)methoxy)ethylcarbamate] | > 50 nM |
| CNC[C@H](CCC1(OC)CCCC1)NC(=O)N1CCC[C@@H]([C@@H](OCCNC(=O)OC)c2cccc(F)c2)C1 [I*-78a, methyl 2-((R)-(3-fluorophenyl)((R)-1-((S)-4-(1-methoxycyclopentyl)-1-(methylamino)butan-2-yl-carbamoyl)piperidin-3-yl)methoxy)ethylcarbamate] | > 50 nM |
| CNC[C@H](CC1CCCCC1)NC(=O)N1CCC[C@@H]([C@@H](OCC(C)NC(=O)OC)c2cccc(Cl)c2)C1 (some centres unmarked) [I*-87a] | < 50 nM |
| CNC[C@@H](CC1(C)CCCCC1)NC(=O)N1CCC[C@@H]([C@@H](OCCNC(=O)OC)c2cccc(Cl)c2)C1 [I*-89a, methyl 2-((R)-(3-chlorophenyl)((R)-1-((R)-1-(methylamino)-3-(1-methylcyclohexyl)propan-2-ylcarbamoyl)piperidin-3-yl)methoxy)ethylcarbamate] | > 50 nM |
| CNC[C@H](CC1CCCCC1)NC(=O)N1CCCC[C@@H]([C@@H](OCCNC(=O)OC)c2cccc(Cl)c2)C1 [I*-91a, methyl 2-((R)-(3-chlorophenyl)((R)-1-((S)-1-cyclohexyl-3-(methylamino)propan-2-ylcarbamoyl)azepan-3-yl)methoxy)ethylcarbamate] | < 10 nM |
| CNC[C@H](CC1CCCCC1)NC(=O)N1CCCC[C@@H]([C@H](OCCNC(=O)OC)c2cccc(Cl)c2)C1 [I*-92a, methyl 2-((S)-(3-chlorophenyl)((R)-1-((S)-1-cyclohexyl-3-(methylamino)propan-2-ylcarbamoyl)azepan-3-yl)methoxy)ethylcarbamate] | > 50 nM |
| CNC[C@H](CN1CCCCC1=O)NC(=O)N1CCC[C@@H]([C@@H](OCCNC(=O)OC)c2cccc(Cl)c2)C1 [I*-93a, methyl 2-((R)-(3-chlorophenyl)((R)-1-((R)-1-(methylamino)-3-(2-oxopiperidin-1-yl)propan-2-yl-carbamoyl)piperidin-3-yl)methoxy)ethylcarbamate] | > 50 nM |
| CNC[C@@H](CC1(C)CCCCC1)NC(=O)N1CCC[C@@H]([C@@H](OCCNC(=O)OC)c2cc(F)cc(F)c2)C1 [I*-94a, methyl 2-((R)-(3,5-difluorophenyl)((R)-1-((R)-1-(methylamino)-3-(1-methylcyclohexyl)propan-2-ylcarbamoyl)piperidin-3-yl)methoxy)ethylcarbamate] | > 50 nM |
| CNC[C@H](CC1(C)CCCCC1)NC(=O)N1CCC[C@@H]([C@@H](OCCNC(=O)OC)c2cc(F)cc(F)c2)C1 [I*-95a, methyl 2-((R)-(3,5-difluorophenyl)((R)-1-((S)-1-(methylamino)-3-(1-methylcyclohexyl)propan-2-ylcarbamoyl)piperidin-3-yl)methoxy)ethylcarbamate] | < 10 nM |
| CNC[C@H](CC1CCCCC1)NC(=O)N1CCC[C@@H]([C@@H](OCCNC(=O)OC)c2c(C)ccc(F)c2F)C1 [I*-96a, methyl 2-((R)-((R)-1-((S)-1-cyclohexyl-3-(methylamino)propan-2-ylcarbamoyl)piperidin-3-yl)(2,3-difluoro-6-methylphenyl)methoxy)ethylcarbamate] | < 10 nM |
| CNC[C@H](CC1CCCCC1)NC(=O)N1CCC[C@H]([C@@H](OCCNC(=O)OC)c2c(C)ccc(F)c2F)C1 [I*-97a, methyl 2-((R)-((S)-1-((S)-1-cyclohexyl-3-(methylamino)propan-2-ylcarbamoyl)piperidin-3-yl)(2,3-difluoro-6-methylphenyl)methoxy)ethylcarbamate] | < 20 nM |
| CNC[C@H](C[C@H]1CCCOCC1)NC(=O)N1CCC[C@@H]([C@@H](OCCNC(=O)OC)c2cccc(Cl)c2)C1 [I*-98a, methyl 2-((R)-(3-chlorophenyl)((R)-1-((S)-1-(methylamino)-3-((R)-oxepan-4-yl)propan-2-yl-carbamoyl)piperidin-3-yl)methoxy)ethylcarbamate] | < 10 nM |
| CNC[C@H](C[C@@H]1CCCOCC1)NC(=O)N1CCC[C@@H]([C@@H](OCCNC(=O)OC)c2cccc(Cl)c2)C1 [I*-99a, methyl 2-((R)-(3-chlorophenyl)((R)-1-((S)-1-(methylamino)-3-((S)-oxepan-4-yl)propan-2-ylcarbamoyl)piperidin-3-yl)methoxy)ethylcarbamate] | < 10 nM |
| CNC[C@H](CC1CCOCC1)NC(=O)N1CCC[C@@H]([C@@H](OCCNC(=O)OC)c2cc(Cl)ccc2C)C1 [I*-101a, methyl 2-((R)-(5-chloro-2-methylphenyl)((R)-1-((S)-1-(methylamino)-3-(tetrahydro-2H-pyran-4-yl)propan-2-ylcarbamoyl)piperidin-3-yl)methoxy)ethylcarbamate] | < 10 nM |

Second part, the molecule after the results:

| IC50 | Structure (SMILES) |
| --- | --- |
| < 10 nM | CNC[C@H](C[C@H]1CCCCOC1)NC(=O)N1CCC[C@@H]([C@@H](OCCNC(=O)OC)c2cc(F)ccc2C)C1 [I*-79a, methyl 2-((R)-(5-fluoro-2-methylphenyl)((R)-1-((S)-1-(methylamino)-3-((R)-oxepan-3-yl)propan-2-ylcarbamoyl)piperidin-3-yl)methoxy)ethylcarbamate] |
| < 10 nM | CNC[C@H](CC1CCC(=O)CC1)NC(=O)N1CCC[C@@H]([C@@H](OCCNC(=O)OC)c2cccc(Cl)c2)C1 [I*-80a, methyl 2-((R)-(3-chlorophenyl)((R)-1-((S)-1-(methylamino)-3-(4-oxocyclohexyl)propan-2-ylcarbamoyl)piperidin-3-yl)methoxy)ethylcarbamate] |
| < 1 nM | CN[C@H](C)[C@H](CC1CCCCC1)NC(=O)N1CCC[C@@H]([C@@H](OCCNC(=O)OC)c2cccc(Cl)c2)C1 [I*-82a, methyl 2-((R)-(3-chlorophenyl)((R)-1-((2S,3R)-1-cyclohexyl-3-(methylamino)butan-2-ylcarbamoyl)piperidin-3-yl)methoxy)ethylcarbamate] |
| < 1 nM | CC[C@@H](N)[C@H](CC1CCCCC1)NC(=O)N1CCC[C@@H]([C@@H](OCCNC(=O)OC)c2cccc(Cl)c2)C1 [I*-83a, methyl 2-((R)-((R)-1-((2S,3R)-3-amino-1-cyclohexylpentan-2-ylcarbamoyl)piperidin-3-yl)(3-chlorophenyl)methoxy)ethylcarbamate] |
| < 1 nM | CNC[C@H](CC1CCCCCC1)NC(=O)N1CCC[C@@H]([C@@H](OCCNC(=O)OC)c2cccc(Cl)c2)C1 [I*-84a, methyl 2-((R)-(3-chlorophenyl)((R)-1-((S)-1-cycloheptyl-3-(methylamino)propan-2-ylcarbamoyl)piperidin-3-yl)methoxy)ethylcarbamate] |
| < 1 nM | CNC[C@H](CC1CCCCC1)NC(=O)N1CCC[C@@H]([C@@H](OCCNC(=O)OC)c2cc(Cl)ccc2C)C1 [I*-85a, methyl 2-((R)-(5-chloro-2-methylphenyl)((R)-1-((S)-1-cyclohexyl-3-(methylamino)propan-2-ylcarbamoyl)piperidin-3-yl)methoxy)ethylcarbamate] |
| < 1 nM | CNC[C@H](CC1CCC(C)CC1)NC(=O)N1CCC[C@@H]([C@@H](OCCNC(=O)OC)c2cccc(Cl)c2)C1 (stereo partly drawn) [I*-86a, methyl 2-((R)-(3-chlorophenyl)((R)-1-((S)-1-(methylamino)-3-(4-methylcyclohexyl)propan-2-ylcarbamoyl)piperidin-3-yl)methoxy)ethylcarbamate] |
| < 1 nM | CCNC[C@H](CC1CCCCC1)NC(=O)N1CCC[C@@H]([C@@H](OCCNC(=O)OC)c2cccc(Cl)c2)C1 [I*-88a, methyl 2-((R)-(3-chlorophenyl)((R)-1-((S)-1-cyclohexyl-3-(ethylamino)propan-2-ylcarbamoyl)piperidin-3-yl)methoxy)ethylcarbamate] |
| < 1 nM | CNC[C@H](CC1(C)CCCCC1)NC(=O)N1CCC[C@@H]([C@@H](OCCNC(=O)OC)c2cccc(Cl)c2)C1 [I*-90a, methyl 2-((R)-(3-chlorophenyl)((R)-1-((S)-1-(methylamino)-3-(1-methylcyclohexyl)propan-2-ylcarbamoyl)piperidin-3-yl)methoxy)ethylcarbamate] |
| < 1 nM | CNC[C@@H](NC(=O)N1CCC[C@@H]([C@@H](OCCNC(=O)OC)c2cccc(Cl)c2)C1)[C@@H](O)C1CCCCC1 [I*-100a, methyl 2-((R)-(3-chlorophenyl)((R)-1-((1S,2R)-1-cyclohexyl-1-hydroxy-3-(methylamino)propan-2-ylcarbamoyl)piperidin-3-yl)methoxy)ethylcarbamate] |
